Experiments:
Assay in all cases: Post-emergence efficacy of compounds of Formula (I) (B1), glasshouse
Assay type in all cases: in vivo
[1] = test system: Lolium perenne (LOLPE); details: Application Rate 500 g/Ha, evaluated after 13 days; for pest or weed control at 500 g/ha: Lolium perenne, post-emergence, 312 h, read-out: Control of LOLPE after post-emergence application (100=total damage to plant; 0=no damage to plant)
Protocol: (§1) Seeds of a variety of test species were sown in standard Iaom-based soil in pots:— Ipomoea hederacea (IPOHE), Euphorbia heterophylla (EPHHL), Chenopodium album (CHEAL), Amaranthus palmeri (AMAPA), Lolium perenne (LOLPE), Digitaria sanguinalis (DIGSA), Eleusine indica (ELEIN), Echinochloa crus-galli (ECHCG), Setaria faberi (SETFA). After cultivation for 14 days (post-emergence) under controlled conditions in a glasshouse (at 24/16° C., day/night; 14 hours light; 65% humidity), the plants were sprayed with an aqueous spray solution derived from the dissolution of the technical active ingredient Formula (I) in a small amount of acetone and a special solvent and emulsifier mixture referred to as IF50 (11.12% Emulsogen EL360 TM+44.44% N-methylpyrrolidone+44.44% Dowanol DPM glycol ether), to create a 50 g/I solution which was then diluted to required concentration using 0.25% or 1% Empicol ESC70 (Sodium lauryl ether sulphate)+1% ammonium sulphate as diluent. The delivery of the aqueous spray solution was via a laboratory track sprayer which delivered the aqueous spray composition at a rate of 200 litres per hectare, using a flat fan nozzle (Teejet 11002VS) and an application volume of 200 litre/ha (at 2 bar).
(§2) The test plants were then grown in a glasshouse under controlled conditions (at 24/16° C., day/night; 14 hours light; 65% humidity) and watered twice daily. After 13 days the test was evaluated (100=total damage to plant; 0=no damage to plant).

[2] = test system: Eleusine indica (ELEIN); details: Application Rate 500 g/Ha, evaluated after 13 days; for pest or weed control at 500 g/ha: Eleusine indica, post-emergence, 312 h, read-out: Control of ELEIN after post-emergence application (100=total damage to plant; 0=no damage to plant)
Protocol: as §1, §2

[3] = test system: Chenopodium album (CHEAL); details: Application Rate 500 g/Ha, evaluated after 13 days; for pest or weed control at 500 g/ha: Chenopodium album, post-emergence, 312 h, read-out: Control of CHEAL after post-emergence application (100=total damage to plant; 0=no damage to plant)
Protocol: as §1, §2

[4] = test system: Digitaria sanguinalis (DIGSA); details: Application Rate 500 g/Ha, evaluated after 13 days; for pest or weed control at 500 g/ha: Digitaria sanguinalis, post-emergence, 312 h, read-out: Control of DIGSA after post-emergence application (100=total damage to plant; 0=no damage to plant)
Protocol: as §1, §2

[5] = test system: Echinochloa crus-galli (ECHCG); details: Application Rate 500 g/Ha, evaluated after 13 days; for pest or weed control at 500 g/ha: Echinochloa crus-galli, post-emergence, 312 h, read-out: Control of ECHCG after post-emergence application (100=total damage to plant; 0=no damage to plant)
Protocol: as §1, §2

[6] = test system: Euphorbia heterophylla (EPHHL); details: Application Rate 500 g/Ha, evaluated after 13 days; for pest or weed control at 500 g/ha: Euphorbia heterophylla, post-emergence, 312 h, read-out: Control of EPHHL after post-emergence application (100=total damage to plant; 0=no damage to plant)
Protocol: as §1, §2

[7] = test system: Amaranthus palmeri (AMAPA); details: Application Rate 500 g/Ha, evaluated after 13 days; for pest or weed control at 500 g/ha: Amaranthus palmeri, post-emergence, 312 h, read-out: Control of AMAPA after post-emergence application (100=total damage to plant; 0=no damage to plant)
Protocol: as §1, §2

[8] = test system: Ipomoea hederacea (IPOHE); details: Application Rate 500 g/Ha, evaluated after 13 days; for pest or weed control at 500 g/ha: Ipomoea hederacea, post-emergence, 312 h, read-out: Control of IPOHE after post-emergence application (100=total damage to plant; 0=no damage to plant)
Protocol: as §1, §2

[9] = test system: Setaria faberi (SETFA); details: Application Rate 500 g/Ha, evaluated after 13 days; for pest or weed control at 500 g/ha: Setaria faberi, post-emergence, 312 h, read-out: Control of SETFA after post-emergence application (100=total damage to plant; 0=no damage to plant)
Protocol: as §1, §2

Structure (SMILES)	pest or weed control at 500 g/ha [1] [%]	pest or weed control at 500 g/ha [2] [%]	pest or weed control at 500 g/ha [3] [%]	pest or weed control at 500 g/ha [4] [%]	pest or weed control at 500 g/ha [5] [%]	pest or weed control at 500 g/ha [6] [%]	pest or weed control at 500 g/ha [7] [%]	pest or weed control at 500 g/ha [8] [%]	pest or weed control at 500 g/ha [9] [%]	Control of LOLPE after post-emergence application (100=total damage to plant; 0=no damage to plant) [1]	Control of ELEIN after post-emergence application (100=total damage to plant; 0=no damage to plant) [2]	Control of CHEAL after post-emergence application (100=total damage to plant; 0=no damage to plant) [3]	Control of DIGSA after post-emergence application (100=total damage to plant; 0=no damage to plant) [4]	Control of ECHCG after post-emergence application (100=total damage to plant; 0=no damage to plant) [5]	Control of EPHHL after post-emergence application (100=total damage to plant; 0=no damage to plant) [6]	Control of AMAPA after post-emergence application (100=total damage to plant; 0=no damage to plant) [7]	Control of IPOHE after post-emergence application (100=total damage to plant; 0=no damage to plant) [8]	Control of SETFA after post-emergence application (100=total damage to plant; 0=no damage to plant) [9]
O=S(=O)([O-])CC[n+]1ccc(-c2ccncc2)cn1 [Compound 1.007]	90	100	100	100	80	40	100	30	70	–	–	–	–	–	–	–	–	–
O=C(O)CC[n+]1ccc(-c2ccncn2)cn1 [Compound 1.011]	70	100	100	90	90	100	100	100	100	–	–	–	–	–	–	–	–	–
O=C(O)CC[n+]1ccc(-c2cnccn2)cn1.[Cl-] [Compound 1.012, 3-(4-pyrazin-2-ylpyridazin-1-ium-1-yl)propanoic acid chloride]	–	–	–	–	–	–	–	–	–	50	90	100	100	90	100	100	20	90
COC(=O)CC[n+]1ccc(-c2cnccn2)cn1 [Compound 1.013, methyl 3-(4-pyrazin-2-ylpyridazin-1-ium-1-yl)propanoate chloride]	70	100	90	100	80	100	100	80	100	–	–	–	–	–	–	–	–	–
O=C(CC[n+]1ccc(-c2ncccn2)cn1)OCc1ccccc1 [Compound 1.018]	40	100	90	100	80	100	90	30	100	–	–	–	–	–	–	–	–	–
O=C(CC[n+]1ccc(-c2ncccn2)cn1)Oc1ccccc1 [Compound 1.020]	80	100	80	100	90	80	100	30	100	–	–	–	–	–	–	–	–	–
O=C(O)CC[n+]1ccc(-c2ncccn2)cn1.[Br-] [Compound 1.021, 3-(4-pyrimidin-2-ylpyridazin-1-ium-1-yl)propanoic acid bromide]	70	–	–	–	–	–	100	–	–	–	100	100	100	100	100	–	100	100
CC(C)(C[n+]1ccc(-c2ncccn2)cn1)C(=O)O [Compound 1.022]	60	100	80	100	90	100	100	100	100	–	–	–	–	–	–	–	–	–
CC(C[n+]1ccc(-c2ncccn2)cn1)C(=O)O (stereo not drawn) [Compound 1.024]	80	100	90	90	100	100	100	40	100	–	–	–	–	–	–	–	–	–
CC(C)(CC(=O)O)[n+]1ccc(-c2ncccn2)cn1 [Compound 1.025, 3-methyl-3-(4-pyrimidin-2-ylpyridazin-1-ium-1-yl)butanoic acid 2,2,2-trifluoroacetate]	30	100	70	90	100	40	100	50	100	–	–	–	–	–	–	–	–	–
CC(C[n+]1ccc(-c2ncccn2)cn1)S(=O)(=O)[O-] (stereo not drawn) [Compound 1.026, 1-(4-pyrimidin-2-ylpyridazin-1-ium-1-yl)propane-2-sulfonate]	80	100	80	100	80	90	100	70	100	–	–	–	–	–	–	–	–	–
O=C(O)CC[n+]1ccc(-c2cccnn2)cn1.[Cl-] [Compound 1.027, 3-(4-pyridazin-3-ylpyridazin-1-ium-1-yl)propanoic acid chloride]	100	80	–	–	–	–	–	–	–	–	–	100	100	100	100	100	30	100
O=S(=O)([O-])CC(O)C[n+]1ccc(-c2ncccn2)cn1 (stereo not drawn) [Compound 1.028]	70	100	90	90	100	80	100	30	100	–	–	–	–	–	–	–	–	–
N[C@H](CC[n+]1ccc(-c2ncccn2)cn1)C(=O)O [Compound 1.029, [(1R)-1-carboxy-3-(4-pyrimidin-2-ylpyridazin-1-ium-1-yl)propyl]-ammonium 2,2,2-trifluoroacetate]	20	100	100	90	60	90	100	90	100	–	–	–	–	–	–	–	–	–

Source: patent publication US20220095618A1, “HERBICIDAL COMPOSITIONS” (SYNGENTA CROP PROTECTION AG, priority 2019, published 2022)
